Data taken from PMC8286840, “Identifying SARS-CoV-2 antiviral compounds by screening for small molecule inhibitors of Nsp3 papain-like protease” (Biochemical Journal, 2021).
Structures can show the parent of a compound that is named as a salt. Where two headings read alike, the source gives them in different places.

Columns and labels:
[1] = biological target: T1, SARS-CoV-2 PLpro (nsp3 1564–1878) (Severe acute respiratory syndrome coronavirus 2, UniProt P0DTD1); assay: biochemical; design: FRET-quenched peptide (Pro3) cleavage by PLpro, 10 min pre-incubation, slope over 20 min, normalised to no-compound control; details: read-out: % of control remaining
[2] = biological target: T1, SARS-CoV-2 PLpro (nsp3 1564–1878); assay: biochemical; design: FRET-quenched peptide (Pro3) cleavage by PLpro, 10 min pre-incubation, slope over 20 min, normalised to no-compound control; details: read-out: % of control remaining; remark: listed apart in the source

## CC(C)(C)NCC(O)c1ccccc1Cl (centres unmarked) [Tulobuterol]
[1]; Well no.=2027, low concentration screen
  remaining activity at 1.25 µM: 98.5%
[2]; Well no.=2027, high concentration screen
  remaining activity at 3.75 µM: 100%

## Cc1nnc(SCC2=C(C(=O)O)N3C(=O)[C@@H](NC(=O)Cn4cnnn4)[C@H]3SC2)s1 [Cefazolin sodium]
[1]; Well no.=178, low concentration screen
  remaining activity at 1.25 µM: 101%
[2]; Well no.=178, high concentration screen
  remaining activity at 3.75 µM: 99.4%

## Cc1ncc(CO)c(CO)c1O [Metadoxine]
[1]; Well no.=8662, low concentration screen
  remaining activity at 1.25 µM: 96.1%
[2]; Well no.=8662, high concentration screen
  remaining activity at 3.75 µM: 93.3%

## OC[C@@H](O)[C@@H](O)[C@@H](O)CO [Ribitol]
[1]; Well no.=6775, low concentration screen
  remaining activity at 1.25 µM: 104%
[2]; Well no.=6775, high concentration screen
  remaining activity at 3.75 µM: 102%

## Nc1ncnc2c1ncn2[C@@H]1O[C@H](COP(=O)(O)OP(=O)(O)O)[C@@H](O)[C@H]1O [Adenosine 5'-diphosphate]
[1]; Well no.=7363, low concentration screen
  remaining activity at 1.25 µM: 104%
[1]; Well no.=7868, low concentration screen
  remaining activity at 1.25 µM: 102%
[2]; Well no.=7363, high concentration screen
  remaining activity at 3.75 µM: 105%
[2]; Well no.=7868, high concentration screen
  remaining activity at 3.75 µM: 104%

## C[C@H](O)[C@H](O)C1=Nc2c(nc(N)[nH]c2=O)NC1 [7,8-Dihydro-L-biopterin]
[1]; Well no.=7401, low concentration screen
  remaining activity at 1.25 µM: 110%
[2]; Well no.=7401, high concentration screen
  remaining activity at 3.75 µM: 102%

## CC(C)Oc1ccc(-c2nc(-c3cccc4c3CC[C@@H]4NCCO)no2)cc1C#N [Ozanimod]
[1]; Well no.=7422, low concentration screen
  remaining activity at 1.25 µM: 104%
[2]; Well no.=7422, high concentration screen
  remaining activity at 3.75 µM: 106%

## CN1[C@@H](CC(=O)c2ccccc2)CCC[C@H]1C[C@H](O)c1ccccc1 [Lobeline (hydrochloride)]
[1]; Well no.=8326, low concentration screen
  remaining activity at 1.25 µM: 104%
[2]; Well no.=8326, high concentration screen
  remaining activity at 3.75 µM: 100%

## CCOC(=O)CCC(=O)O[C@H]1[C@H](O[C@@H]2[C@@H](C)[C@H](O[C@H]3C[C@@](C)(OC)[C@@H](O)[C@H](C)O3)[C@@H](C)C(=O)O[C@H](CC)[C@@](C)(O)[C@H](O)[C@@H](C)C(=O)[C@H](C)C[C@@]2(C)O)O[C@H](C)C[C@@H]1N(C)C [Erythromycin Ethylsuccinate]
[1]; Well no.=5126, low concentration screen
  remaining activity at 1.25 µM: 100%
[2]; Well no.=5126, high concentration screen
  remaining activity at 3.75 µM: 102%

## COc1ccc2c(c1OC)C(=O)O[C@@H]2[C@H]1c2c(cc3c(c2OC)OCO3)CCN1C (racemic)
[1]; Well no.=3446, low concentration screen
  remaining activity at 1.25 µM: 92.3%
[2]; Well no.=3446, high concentration screen
  remaining activity at 3.75 µM: 90.7%

## CCc1cc(/C(C)=N/OCc2ccc(C3CCCCC3)c(C(F)(F)F)c2)ccc1CN1CC(C(=O)O)C1 [Siponimod]
[1]; Well no.=6669, low concentration screen
  remaining activity at 1.25 µM: 97.7%
[2]; Well no.=6669, high concentration screen
  remaining activity at 3.75 µM: 93.3%

## COCCOc1ccc2c(c1)ncn2-c1ccc2cccc(N3CCC(N)CC3)c2n1 [CP 673451]
[1]; Well no.=5285, low concentration screen
  remaining activity at 1.25 µM: 97.9%
[2]; Well no.=5285, high concentration screen
  remaining activity at 3.75 µM: 102%

## COc1ccc(CC(=O)O)cc1OC [3,4-Dimethoxyphenylacetic acid]
[1]; Well no.=6639, low concentration screen
  remaining activity at 1.25 µM: 103%
[2]; Well no.=6639, high concentration screen
  remaining activity at 3.75 µM: 104%

## Nc1nc2ccc(Cl)cc2c2nc(-c3ccco3)nn12 [CGS-15943]
[1]; Well no.=393, low concentration screen
  remaining activity at 1.25 µM: 104%
[2]; Well no.=393, high concentration screen
  remaining activity at 3.75 µM: 104%

## O=C1Nc2ccccc2/C1=C1/Nc2ccccc2C1=O [Indirubin]
[1]; Well no.=3771, low concentration screen
  remaining activity at 1.25 µM: 95.4%
[2]; Well no.=3771, high concentration screen
  remaining activity at 3.75 µM: 101%

## COc1c2c(cc3c1OCO3)CCN(C)C2 [Hydrocotarnine HBr]
[1]; Well no.=3462, low concentration screen
  remaining activity at 1.25 µM: 102%
[2]; Well no.=3462, high concentration screen
  remaining activity at 3.75 µM: 103%

## Cc1cc(Cn2cnc3c2C[C@@H](C(=O)O)N(C(=O)C(c2ccccc2)c2ccccc2)C3)ccc1N(C)C [PD 123319 (ditrifluoroacetate)]
[1]; Well no.=7145, low concentration screen
  remaining activity at 1.25 µM: 97.1%
[1]; Well no.=8406, low concentration screen
  remaining activity at 1.25 µM: 94.2%
[2]; Well no.=7145, high concentration screen
  remaining activity at 3.75 µM: 96.9%
[2]; Well no.=8406, high concentration screen
  remaining activity at 3.75 µM: 92.3%

## Nc1nc(F)nc2c1ncn2[C@@H]1O[C@H](COP(=O)(O)O)[C@@H](O)[C@@H]1O [Fludarabine (phosphate)]
[1]; Well no.=8046, low concentration screen
  remaining activity at 1.25 µM: 95.8%
[2]; Well no.=8046, high concentration screen
  remaining activity at 3.75 µM: 98%

## O=Nc1c(-c2c(O)[nH]c3ccccc23)[nH]c2ccccc12 [Indirubin-3'-oxime]
[1]; Well no.=668, low concentration screen
  remaining activity at 1.25 µM: 95.2%
[2]; Well no.=668, high concentration screen
  remaining activity at 3.75 µM: 92.9%

## CC(C)(C)c1cc(C=C(C#N)C#N)cc(Br)c1O [AG 1024]
[1]; Well no.=2307, low concentration screen
  remaining activity at 1.25 µM: 104%
[2]; Well no.=2307, high concentration screen
  remaining activity at 3.75 µM: 104%

## COc1cc2nc(C3CC3)nc(N3CCN(c4ccccc4OC)CC3)c2cc1OC [ML314]
[1]; Well no.=7913, low concentration screen
  remaining activity at 1.25 µM: 97.1%
[2]; Well no.=7913, high concentration screen
  remaining activity at 3.75 µM: 98.2%

## CCN(CC)c1ncnc2c1ncn2[C@@H]1O[C@H](COP(=O)(O)OP(=O)(O)C(Br)(Br)P(=O)(O)O)[C@@H](O)[C@H]1O [ARL 67156 trisodium salt]
[1]
  remaining activity at 1.25 µM: 96%
[2]
  remaining activity at 3.75 µM: 96.3%

## COc1ccc(/C=C/c2cc(O)cc(O[C@@H]3O[C@H](CO)[C@@H](O)[C@H](O)[C@H]3O)c2)cc1O [Rhapontin]
[1]; Well no.=3300, low concentration screen
  remaining activity at 1.25 µM: 102%
[2]; Well no.=3300, high concentration screen
  remaining activity at 3.75 µM: 101%

## O=C(O)c1cn(C2CC2)c2cc(N3CCNCC3)c(F)cc2c1=O [Ciprofloxacin]
[1]; Well no.=2263, low concentration screen
  remaining activity at 1.25 µM: 99%
[2]; Well no.=2263, high concentration screen
  remaining activity at 3.75 µM: 100%

## N[C@@H](Cc1ccc(O)c(O)c1)C(=O)O [L-DOPA]
[1]; Well no.=6861, low concentration screen
  remaining activity at 1.25 µM: 91.2%
[2]; Well no.=6861, high concentration screen
  remaining activity at 3.75 µM: 92.3%

## O=c1[nH]c(=O)n([C@H]2C[C@H](O)[C@@H](CO)O2)cc1F [Floxuridine]
[1]; Well no.=2124, low concentration screen
  remaining activity at 1.25 µM: 98.1%
[1]; Well no.=8010, low concentration screen
  remaining activity at 1.25 µM: 88%
[2]; Well no.=2124, high concentration screen
  remaining activity at 3.75 µM: 102%
[2]; Well no.=8010, high concentration screen
  remaining activity at 3.75 µM: 86.4%

## N#Cc1ccc(COC[C@H]2O[C@@H](n3c(NCc4ccc(Cl)c(Cl)c4)nc4c(N)ncnc43)[C@H](O)[C@@H]2O)cc1 [VER155008]
[1]; Well no.=8816, low concentration screen
  remaining activity at 1.25 µM: 89.7%
[2]; Well no.=8816, high concentration screen
  remaining activity at 3.75 µM: 89.6%

## O=C(O)COCCN1CCN(C(c2ccccc2)c2ccc(Cl)cc2)CC1 (centres unmarked) [Cetirizine (dihydrochloride)]
[1]; Well no.=7325, low concentration screen
  remaining activity at 1.25 µM: 104%
[2]; Well no.=7325, high concentration screen
  remaining activity at 3.75 µM: 103%

## CC[C@@H](C(N)=O)N1CCCC1=O [Levetiracetam]
[1]; Well no.=1820, low concentration screen
  remaining activity at 1.25 µM: 96.8%
[2]; Well no.=1820, high concentration screen
  remaining activity at 3.75 µM: 94.4%

## COc1cccc(OC)c1C(=O)N[C@@H]1C(=O)N2[C@@H]1SC(C)(C)[C@@H]2C(=O)O [Methicillin (sodium salt)]
[1]; Well no.=7448, low concentration screen
  remaining activity at 1.25 µM: 100%
[2]; Well no.=7448, high concentration screen
  remaining activity at 3.75 µM: 99.6%

## CN(C)C(=O)C(CCN1CCC(O)(c2ccc(Cl)cc2)CC1)(c1ccccc1)c1ccccc1 [Loperamide hydrochloride]
[1]; Well no.=1073, low concentration screen
  remaining activity at 1.25 µM: 94.7%
[2]; Well no.=1073, high concentration screen
  remaining activity at 3.75 µM: 98.4%

## NC(N)=NC(=O)c1nc(Cl)c(N2CCCCCC2)nc1N [5-(N,N-hexamethylene)amiloride]
[1]; Well no.=106, low concentration screen
  remaining activity at 1.25 µM: 104%
[2]; Well no.=106, high concentration screen
  remaining activity at 3.75 µM: 104%

## CC(CC(=O)O)CC(=O)O [3-Methylglutaric acid]
[1]; Well no.=6835, low concentration screen
  remaining activity at 1.25 µM: 100%
[2]; Well no.=6835, high concentration screen
  remaining activity at 3.75 µM: 99.3%

## CCOC(=O)[C@H](CCc1ccccc1)N[C@@H](C)C(=O)N1C(=O)N(C)C[C@H]1C(=O)O [Imidapril hydrochloride]
[1]; Well no.=5696, low concentration screen
  remaining activity at 1.25 µM: 91.8%
[2]; Well no.=5696, high concentration screen
  remaining activity at 3.75 µM: 92.9%
